# Laboratory results as given in paper PMC7059089, “Bioguided Isolation and Structure Identification of Acetylcholinesterase Enzyme Inhibitors from Drynariae Rhizome” (Journal of Analytical Methods in Chemistry, 2020).
# Biological target: T1, AChE (acetylcholinesterase) (Electrophorus electricus, UniProt O42275)
# T1 construct: obtained from the head of an electric eel; purchased Shanghai Source Biotech Co. Ltd. (Shanghai, China); host or cells: electric eel tissue (head)
# Assay: biochemical
# Details: UPLC-MS/MS assay, ACh-I substrate, 37°C, 25 min, pH 8.0, n = 6, ± SD; read-out: IC50 against AChE
# Excerpt: AChE (acetylcholinesterase, obtained from the head of an electric eel, 500 U), iodized acetylcholine (ACh-I, purity > 98.0%), iodized choline (Ch-I, purity > 98.0%), and Tris-HCl buffer (1 mol/L, pH 8.0) were all purchased from Shanghai Source Biotech Co. Ltd. (Shanghai, China). […] UPLC-grade acetonitrile was obtained from Fisher (Fair Lawn, NJ, USA). Water was purified by redistillation and a Milli-Q® ultrapure water system (Millipore, Bedford, MA, USA). Other chemicals and solvents used were of analytical grade.
# AChE inhibition activities of the analytes were determined in vitro by monitoring the transformation from a substrate (ACh-I) to the product (Ch-I) catalyzed AChE, and Ch-I was quantified with UPLC-MS/MS to access the AChE activity. The reaction was conducted in a 100 μL mixture, consisting of 50 μL AChE solution (0.5 U/mL), 45 μL ACh-I solution (400 μg/mL), and 5 μL tested sample or blank Tris solution which were all dissolved in Tris buffer (pH 8.0). The mixture was incubated at 37°C in a thermostatic water bath for 25 min and then terminated by 500 μL acetonitrile at 0°C immediately. The terminal solution was centrifuged at 20,000g for 15 min, and the supernatant was used for UPLC-MS/MS analysis.
# The […] inhibition was calculated as follows:(1) inhibition %=Cb−Cs/Cb∗100%. where Cb means the Ch-I concentration incubated without AChE inhibitor and Cs means the Ch-I concentration incubated with inhibitor. The inhibitory activities of the AChE inhibitors were assessed by the IC50 values of tested compounds. Galanthamine was selected as a positive control.
# Liquid chromatography analysis was accomplished on an ACQUITY UPLC™ system (Waters Corp., Milford, MA, USA). The chromatographic separation was carried out using an ACQUITY UPLCTM BEH C18 column (2.1 × 50 mm, 1.7 μm) at 30°C. The isocratic elution mobile phase consisted of 0.5% acetic acid (A) and acetonitrile (B) (40 : 60) to guarantee the peak shape of Ch-I.
# A Waters® Micromass® Quattro Premier™ XE triple-quadrupole tandem mass spectrometer equipped with an electrospray ionization interface (TQ-ESI) was used for mass spectrometric detection. The positive ESI source operation optimal parameters were capillary voltage 3.0 kV, extractor voltage 3.00 V, skimmer 25.0 V, fragmentor 35 V, octopole Rf peak 3000 v, source temperature 120°C, and desolvation temperature 300°C. Nitrogen was used as the desolvation gas and cone gas at a flow of 600 L/h and 50 L/h, respectively. Argon was used as the collision gas at a pressure of approximately 2.61 × 10^−3 mbar. A multiple reaction monitoring (MRM) mode was used to quantify Ch-I, and the fragments of 104.34 Th and 58.53 Th were selected as the parent ion and daughter ion to obtain accurate quantitation in the mixture containing herb extract. The MS scan rate spectrum was 5000 amu/s, dwell time 5 ms, and m/z range 0–300 Th. All data were acquired and analyzed by Mass Lynx™ NT 4.1 software with the Quan Lynx™ program (Waters, Milford, MA, USA).
# The reaction procedure was conducted with reference to Liu's report; moreover, the enzyme constants, steady-state kinetics, reaction temperature, reaction time, substrate concentration, and AChE concentration were investigated and optimized to guarantee the utilization. […] The concentration of AChE in Liu's report was 3.470 U/mL.
# T1 sequence (O42275 24-633): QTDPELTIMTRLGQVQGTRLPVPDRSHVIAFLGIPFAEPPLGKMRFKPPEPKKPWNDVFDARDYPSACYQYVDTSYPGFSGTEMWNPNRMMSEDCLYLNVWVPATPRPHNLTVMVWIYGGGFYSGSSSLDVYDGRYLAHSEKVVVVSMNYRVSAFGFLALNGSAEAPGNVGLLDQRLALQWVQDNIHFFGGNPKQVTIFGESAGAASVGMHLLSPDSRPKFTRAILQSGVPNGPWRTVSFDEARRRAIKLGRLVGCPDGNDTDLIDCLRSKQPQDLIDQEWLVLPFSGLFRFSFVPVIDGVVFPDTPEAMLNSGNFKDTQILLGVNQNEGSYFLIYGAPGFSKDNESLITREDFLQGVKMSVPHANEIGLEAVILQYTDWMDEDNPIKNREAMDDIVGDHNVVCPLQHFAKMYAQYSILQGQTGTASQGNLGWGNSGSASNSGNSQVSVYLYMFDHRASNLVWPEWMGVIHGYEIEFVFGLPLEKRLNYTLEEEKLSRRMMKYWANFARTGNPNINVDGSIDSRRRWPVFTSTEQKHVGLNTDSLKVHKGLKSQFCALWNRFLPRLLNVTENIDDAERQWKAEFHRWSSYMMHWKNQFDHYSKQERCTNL
row,SMILES,IC50 [µM]
1,"C[C@@H]1O[C@@H](O[C@H]2[C@H](Oc3cc(O)c4c(c3)O[C@H](c3ccc(O)cc3)CC4=O)O[C@H](CO)[C@@H](O)[C@@H]2O)[C@H](O)[C@H](O)[C@H]1O [Naringin, naringin]",26.4 ± 1.17
2,"O=C1C[C@@H](c2ccc(O)cc2)Oc2cc(O)cc(O)c21 [Naringenin, naringenin]",3.81 ± 0.21
3,"O=c1cc(-c2ccc(O)c(O)c2)oc2cc(O[C@@H]3O[C@H](CO)[C@H](O)[C@H](O)[C@H]3O)cc(O)c12 [Luteolin-7-O-β-D-glucoside, luteolin-7-O-β-D-glucoside]",17.1 ± 1.02
4,"C[C@@H]1O[C@@H](O[C@H]2[C@H](Oc3cc(O)c4c(c3)O[C@H](c3ccc(O)c(O)c3)CC4=O)O[C@H](CO)[C@@H](O)[C@@H]2O)[C@H](O)[C@H](O)[C@H]1O [Neoeriocitrin, neoeriocitrin]",22.5 ± 1.25
5,"O=c1cc(-c2ccc(O)c(O)c2)oc2cc(O)cc(O)c12 [Luteolin, luteolin]",17.3 ± 0.23
6,"O=C1C[C@@H](c2ccc(O)c(O)c2)Oc2cc(O)cc(O)c21 [Eriodictyol, eriodictyol]",7.19 ± 0.62
7,"O=c1c(O[C@@H]2O[C@H](CO)[C@@H](O)[C@H](O)[C@H]2O)c(-c2ccc(O)cc2)oc2cc(O)cc(O)c12 [Astragalin, astragalin]",18.2 ± 2.33
